Experimental data taken from PMC7772889, “Integrating biokinetics and in vitro studies to evaluate developmental neurotoxicity induced by chlorpyrifos in human iPSC-derived neural stem cells undergoing differentiation towards neuronal and glial cells” (Reproductive Toxicology (Elmsford, N.y.), 2020).

How the values were obtained:
[1] = Chemical solubility and stability / recovery from medium (HPLC-UV); format: physicochemical
Method: The solubility and stability of CPF in water, medium and DMSO (the vehicle used to prepare stock solutions), were checked in preliminary assays, mimicking the actual experimental conditions: maximum concentration used; 37 °C; controlled pH; different incubation times. Samples in amber glass vials with screw caps were stored at −80 °C until the analysis for quantifying CPF by means of HPLC-UV was carried out.
Plastic-bound fraction was injected as such.

[2] = Cross-contamination among wells; format: physicochemical
Method: In the adjacent wells to those containing CPF, at the applied concentrations, a corresponding amount of DMSO (vehicle control) was added. At the end of the experiment, the content of these control wells was stored at −80 °C until HPLC analysis. The CPF content in control wells served as an indication of possible contamination across wells, due to CPF evaporation.

Adsorption to plastic = format: in vitro ADME
Method: Since CPF is a lipophilic chemical, its potential adsorption to the plastic wells was evaluated during the kinetic experiments. At the end of each experiment, the content (cells and medium) of each sample well was removed. Wells were washed twice with PBS, to remove possible cellular debris and 3 mL methanol (MeOH) were added. The plate was sealed with Parafilm and kept under gentle shaking at room temperature for 2h, before transferring the complete volume into amber glass vials with screw caps. The fractions were stored at −80 °C until HPLC analysis.

[3] = test system: hiPSC-derived NSCs undergoing differentiation towards neurons and astrocytes; assay: In vitro biokinetics of CPF and metabolites in medium, cells and plastic (HPLC-UV)
Method: The nominal concentration causing 5 % decrease of viability (IC5) was previously identified, extrapolating a dose response curves obtained with six CPF nominal concentrations (0.49, 1.95, 7.81, 31.25, 125, and 500 μM) vs solvent control (0.1 % DMSO) after 14-day treatment by means of resazurin test (CellTiter-Blue® Reagent).
CPF stock solutions were prepared in DMSO and stored in glass at −20 °C until the beginning of each experiment. Freshly prepared treatment solutions were obtained after the dilution of stock solutions in a ratio of […] in serum-free culture medium, keeping DMSO concentration at 0.1 %. Aliquots of the stock and daily treatment solutions (considered as the starting solutions) were stored at −80 °C until HPLC analysis.
Cells (about 21,000 cells/cm^2), seeded on 6 well PDL- and reduced growth factor Matrigel coated plates, were treated during the differentiation process, starting from day 7 of differentiation up to day 21, with treatment/medium refreshed twice a week (Fig. 2). Exposure to CPF of cells or pre-coated wells (without cells) was initiated by adding 2 mL per well of the corresponding treatment solutions or the vehicle (control wells). Four biological replicates were carried out.
A first set of experiments was used to fine tune the experimental conditions, including time points and exposure conditions, taking into account possible metabolism, bioaccumulation and/or physical sequestration processes. All the fractions (i.e., medium, cells, plastic and matrix-bound fractions) were collected, at the first and last day of treatment, at different time points (i.e., 1, 3, 6, 24 h) selected on the basis of the intrinsic features of the compound and the cellular model. At each time point, the medium was transferred into amber glass vials and stored at −80 °C until HPLC analysis. Cells were washed twice with PBS (2 mL/well); to avoid dehydration of the cells, an aliquot of PBS was kept in each well. PBS was then removed, cells were scraped from the wells in 250 μL MeOH, additional 100 μL MeOH were added for washing and all the content was transferred into amber glass vials. The same procedure was applied also to the wells used for measuring matrix-bound material (without cells). Cells were then sonicated until they were fully homogenized (about 15 min). All fractions, including DMSO from control wells and MeOH used to measure possible plastic binding, were stored at −80 °C until HPLC analysis. Four biological replicates were carried out.
All samples from kinetic experiments were analysed using high-performance liquid chromatography (HPLC), as previously described, to quantify CPF and its metabolites. Prior to analysis, one volume of the collected medium samples was mixed with three volumes of MeOH. All the mixtures, including cell and matrix-bound samples, were vortexed for 30 s and then centrifuged (Eppendorf 5417R; 4 °C, 2500 rpm) for 10 min. Preliminary assays were conducted to evaluate CPF and its metabolite recovery after the solvent extraction procedure from each type of sample. […] Plastic-bound fraction was injected as such.
The HPLC system included a PerkinElmer Series 200 analytical pump, a Restek™ Pinnacle ODS Amine C18 column, a PerkinElmer LC 235 Diode Array Detector and the PerkinElmer Totalchrom™ 3.1.2 software for data acquisition and evaluation. For analysing CPF, CPFO and TCP, a gradient elution was applied at a flow rate of 1.0 mL/min, starting at 80:20 % methanol /buffer (Tris /HCl 50 mM EDTA 1 mM pH 7.4) and reaching after 4 min a percentage of 70:30 (v/v), respectively, maintained for 16 min. Then, the gradient returned to the initial concentration before the next sample was injected.

[4] = test system: hiPSC-derived NSCs undergoing differentiation; assay: Spontaneous electrical activity by multi-well MEA; format: cell-based, human
Method: Cells were plated in complete ND medium onto polyethyleneimine (PEI)- and laminin-coated 24-well-MEA plates (24-Well Plate Glass (24W300/30G-288) V.232, 12 gold microelectrodes/well) (MultiChannel Systems) (5 × 10^5 cells/well), and on day 7 of differentiation cells were treated with CPF at 21 μM or solvent control (0.1 % DMSO) for 14 days. Electrical activity was evaluated before adding CPF (0d) or solvent control, and monitored after 3, 7, 10 and 14 days of treatment (Fig. 2). Representative electrode recordings were considered for the analysis of spike rate (number of spikes/sec), burst count (considering a burst as a train of at least 5 spikes occurring within 100 millisec), and network burst count (the number of bursts that resulted synchronized among all 12 electrodes). Electrical activity was recorded using the Multi-well MEA-System, considering a sampling rate of 20,000 Hz, a low-pass filter cutoff frequency of 3500 Hz, and a high-pass filter cutoff frequency of 100 Hz. Data represent the average of at least three biological replicates.

[5] = cited from earlier work
[6] = 21 μM (IC5), significant after 7-day treatment

Q: With `CCOP(=S)(OCC)Oc1nc(Cl)c(Cl)cc1Cl` [CPF, Chlorpyrifos] as the compound, how does the “Solubility and stability in aqueous medium solutions and DMSO” value ([1]; maximum concentration, 37 °C, controlled pH, different incubation times) read?
A: soluble and chemically stable

Q: What about the Recovery from medium ([1]; serum-free medium) of the same compound?
A: 108.2 ± 18.6%

Q: What about the Cross-contamination among wells ([2]; first day of treatment) of the same compound?
A: Not detectable

Q: And the Cross-contamination among wells ([2]; last day of treatment)?
A: Not detectable

Q: What about the Bound-to-plastic fraction (Adsorption to plastic; first day of treatment) of the same compound?
A: 0−8.4%

Q: And the Bound-to-plastic fraction (Adsorption to plastic; last day of treatment)?
A: 7.5−16.5%

Q: And the “Intracellular levels of CPF” value ([3]; first day of treatment, 1 h until 24 h, 21 μM nominal)?
A: 2.5–4.7 nmol/well

Q: And the “CPF in the medium as % of the initial CPF amount” value ([3]; first day of treatment, 24 h)?
A: around 41%

Q: And the “CPF in the medium” value ([3]; first day of treatment, 24 h, 21 μM nominal)?
A: 18.0 ± 6.9 nmol/well

Q: What about the “Mass balance (% of the applied CPF amount)” value ([3]; first day of treatment, first three time points (1, 3 and 6 h)) of the same compound?
A: around 95%

Q: What about the “Actual concentration in the medium at the beginning of the experiment (treatment solution)” value ([3]; nominal concentration 21 μM (IC5)) of the same compound?
A: 24.5 ± 5.6 µM

Q: What about the “Amount of CPF in the cell compartment, last day compared to first day of treatment” value ([3]; p < 0.01) of the same compound?
A: doubled

Q: And the Mass balance ([3]; repeated exposure, within the first 6 h)?
A: 110 to 120%

Q: What about the number of bursts [4, 6] of the same compound?
A: modest decrease

Q: And the spike rate [4, 6]?
A: modest decrease

Q: And the “number of synchronized network bursts” value ([4]; 21 μM, starting from the 10th day of treatment)?
A: decrease

Q: What about the vapour pressure ([5]; at 25 °C) of the same compound?
A: 2.02 × 10^−5 mm Hg

Q: What about the “log Kow, octanol/water partition coefficient” value [5] of the same compound?
A: 4.96
